Data from paper PMC11061149, “Protein mimetic 2D FAST rescues alpha synuclein aggregation mediated early and post disease Parkinson’s phenotypes” (Nature Communications, 2024).

Biological target: T1, 15N-labeled αS monomer (Homo sapiens, UniProt P37840)
T1 construct: purchased rpeptide, Bogart, GA
Assay: 2D 1H-15N HSQC NMR of 15N-labeled αS with ligand
Format: binding
Details: 70 µM 15N-αS + equimolar ligand, V/V0
Protocol: A solution of ^15N αS was prepared by resuspending 1 mg of uniformly labeled ^15N αS (rpeptide, Bogart, GA) in 1 mL Milli-Q water to yield a 70 μM αS solution in 20 mM Tris-HCl pH 7.4, 100 mM NaCl. The protein was buffer exchanged to Milli-Q water, lyophilized, and stored at –80 °C. For the preparation of NMR experiments, the lyophilized ^15N αS powder was dissolved in the NMR buffer (300 μL, 20 mM NaPO4 pH 6.4, 5% D2O, v/v) to make a final concentration of 70 μM. The protein concentration was confirmed with a NanoDrop One (Thermo Scientific, Waltham, MA) at 280 nm using an extinction coefficient of 5960 M^-1cm^-1. The solutions were transferred into Shigemi BMS-005 NMR tube (Shigemi, Tokyo, Japan) and the two-dimensional ^1H-^15N HSQC NMR experiments were performed on a 600 MHz Bruker Avance Neo (CU Anschutz, NMR core facility, CO) instrument equipped with a triple resonance HCN cryoprobe. Data was collected at 12 °C on Topspin 4.9.0 software (Bruker, Billerica, MA). The HSQC spectra were recorded using a data matrix consisting of 1024 (t2, ^1H) × 160 (t1, ^15N) complex points. Resonance assignments were determined utilizing a previous publication[83] and the data analysis was performed using MestReNova software.
For the HSQC experiments titrating NS132 into ^15N αS, the same experimental conditions were used as above. Incrementally, NS132 was added to a single ^15N αS solution, mixed, kept at r.t. for 10 min and HSQC was recorded under the conditions stated above. For HSQC experiments containing pre-formed fibrils (PFF) of αS, 5.4 eq. of PFF solution (500 μM) was added to monomeric ^15N αS solution, and the spectra was recorded as previously stated.

Change in volume of peaks, αS residue A11: 0.12
Change in volume of peaks, αS residue A17: 0.33
Change in volume of peaks, αS residue A18: 0.55
Change in volume of peaks, αS residue A19: 0.15
Change in volume of peaks, αS residue A56: 0.13
Change in volume of peaks, αS residue A78: 0.03
Change in volume of peaks, αS residue A89: 0.12
Change in volume of peaks, αS residue A90: 0.08
Change in volume of peaks, αS residue A107: 0.04
Change in volume of peaks, αS residue E13: 0.05
Change in volume of peaks, αS residue E20: 0.17
Change in volume of peaks, αS residue E46: 0.14
Change in volume of peaks, αS residue G14: 0.1
Change in volume of peaks, αS residue G31: 0.08
Change in volume of peaks, αS residue G36: 0.1
Change in volume of peaks, αS residue G41: 0.31
Change in volume of peaks, αS residue G68: 0.06
Change in volume of peaks, αS residue G93: 0.04
Change in volume of peaks, αS residue H50: 0.52
Change in volume of peaks, αS residue K10: 0.12
Change in volume of peaks, αS residue K12: 0.77
Change in volume of peaks, αS residue K43: 0.42
Change in volume of peaks, αS residue L38: 0.05
Change in volume of peaks, αS residue L100: 0.09
Change in volume of peaks, αS residue S42: 0.46
Change in volume of peaks, αS residue S129: 0.14
Change in volume of peaks, αS residue T22: 0.03
Change in volume of peaks, αS residue T59: 0.26
Change in volume of peaks, αS residue T64: 0.08
Change in volume of peaks, αS residue T75: 0.22
Change in volume of peaks, αS residue V3: 0.04
Change in volume of peaks, αS residue V15: 0.61
Change in volume of peaks, αS residue V16: 0.09
Change in volume of peaks, αS residue V37: 0.08
Change in volume of peaks, αS residue V40: 0.13
Change in volume of peaks, αS residue V66: 0.04
Change in volume of peaks, αS residue V77: 0.16
Change in volume of peaks, αS residue V82: 0.09
Change in volume of peaks, αS residue Y39: 0.21
Compound: Cc1ccc(NC(=O)c2ccc(NC(=O)c3ccc([N+](=O)[O-])c(NCCc4c[nH]c5ccccc45)n3)c(NCC3CCCCC3)n2)c(OCC(=O)O)n1 [NS132]
